According to US8440666B2, “Pyridazinone compounds and P2X7 receptor inhibitors” (Nissan Chemical Industries, Ltd., priority 2007, dated 2013):
Where a name gives a salt, the structure may show the parent alone.

Target: T1, Human P2X7 (hP2X7) receptor (Homo sapiens, UniProt Q99572)
T1 construct: myc-His (from the pcDNA3.1/myc-HisA vector); expressed in transfected cells
T1 sequence (Q99572 1-595): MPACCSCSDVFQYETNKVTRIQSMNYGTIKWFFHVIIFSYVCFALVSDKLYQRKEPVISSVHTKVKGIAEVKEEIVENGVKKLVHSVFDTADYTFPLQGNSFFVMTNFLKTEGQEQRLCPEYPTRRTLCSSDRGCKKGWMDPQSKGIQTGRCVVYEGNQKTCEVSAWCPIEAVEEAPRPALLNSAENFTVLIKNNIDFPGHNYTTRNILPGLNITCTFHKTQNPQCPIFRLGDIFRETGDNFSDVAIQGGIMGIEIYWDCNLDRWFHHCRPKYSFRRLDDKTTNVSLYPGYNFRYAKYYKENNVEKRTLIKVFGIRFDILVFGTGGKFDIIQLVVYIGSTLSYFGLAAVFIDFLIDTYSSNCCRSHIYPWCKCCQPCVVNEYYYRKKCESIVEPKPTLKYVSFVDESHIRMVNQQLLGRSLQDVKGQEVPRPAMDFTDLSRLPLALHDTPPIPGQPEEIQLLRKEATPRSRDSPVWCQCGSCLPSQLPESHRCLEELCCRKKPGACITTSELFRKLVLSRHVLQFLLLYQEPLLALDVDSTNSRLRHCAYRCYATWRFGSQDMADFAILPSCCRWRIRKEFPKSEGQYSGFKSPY
Assay: Dye assay: BzATP-induced Yo-Pro-1 uptake in HEK293 cells stably expressing hP2X7
Assay type: cell-based
Conditions: BzATP (0.1 mM)-induced Yo-Pro-1 uptake, compounds 30 min pre-treatment, 90 min incubation
Description: Human P2X7 (hP2×7) was cloned from a normal human brain total RNA library by reverse transcription (using SuperScript II (Invitrogen)) and PCR (using KOD-plus-(TOYOBO)). PCR primers were designed according to hP2X7 sequence registered in GENBANK with a putative amino acid sequence consisting of 595 amino acid residues. The PCR fragments were inserted into pcDNA3.1/myc-HisA vector (Invitrogen) and sequenced for confirmation.
HEK293 cells were transfected with hP2×7/pcDNA3.1/myc-HisA by lipofection, and 1 day later, the cells were treated with 1 mg/mL G418, and resistant cells were selected by appropriately dilution. The resistant cells were cloned by reseeding at a low density.
P2X7 receptor antagonists were screened by a dye uptake assay using HEK293 cells stably expressing hP2×7. Cells were plated on a type I collagen-coated black/clear bottom 96-well plate at 20000 cells/well and a day later, treated with varying concentrations of various test compounds for 30 minutes, then treated with a dye (Yo-Pro-1) (final concentration 2 μM) and BzATP (final concentration 0.1 mM) and incubated for 90 minutes. Then, the fluorescence (indicating the BzATP-induced Yo-Pro-1 uptake mediated by the P2X7 receptor) was measured with a microplate reader (excitation wavelength: 485 nm, emission wavelength: 535 nm). The % inhibition rates were calculated and plotted against the logarithms of the concentrations to determine IC50.

IC50	SMILES
74 nM	C[C@@H]1[C@H]2C[C@@H](C[C@H]1Nc1cnn(CC(=O)NC(C(=O)O)c3ccccc3)c(=O)c1Br)C2(C)C (stereo partly drawn) [Synthetic Example 403, ({[5-Bromo-6-oxo-4-{[(1R,2R,3R,5S)-2,6,6-trimethylbicyclo[3.1.1]hept-3-yl]amino}pyridazin-1(6H)-yl]acetyl}amino)(phenyl)acetic Acid]
47 nM	C[C@@H]1[C@H]2C[C@@H](C[C@H]1Nc1cnn(CC(=O)NC(C(N)=O)c3ccccc3)c(=O)c1Br)C2(C)C (stereo partly drawn) [Synthetic Example 404, N-(2-Amino-2-oxo-1-phenylethyl)-2-[5-bromo-6-oxo-4-{[(1R,2R,3R,5S)-2,6,6-trimethylbicyclo[3.1.1]hept-3-yl]amino}pyridazin-1(6H)-yl]acetamide]
21 nM	C[C@@H]1[C@H]2C[C@@H](C[C@H]1Nc1cnn(C(F)C(=O)NCc3ccncc3)c(=O)c1Br)C2(C)C (stereo partly drawn) [Synthetic Example 405, [5-Bromo-6-oxo-4-{[(1R,2R,3R,5S)-2,6,6-trimethylbicyclo[3.1.1]hept-3-yl]amino}pyridazin-1(6H)-yl]-2-fluoro-N-(pyridin-4-ylmethyl)acetamide]
40 nM	C[C@@H]1[C@H]2C[C@@H](C[C@H]1Nc1cnn(CC(=O)NCc3ccncc3)c(=O)c1C(=O)O)C2(C)C [Synthetic Example 406, 3-Oxo-2-{2-oxo-2-[(pyridin-4-ylmethyl)amino]ethyl}-5-{[(1R,2R,3R,5S)-2,6,6-trimethylbicyclo[3.1.1]hept-3-yl]amino}-2,3-dihydropyridazine-4-carboxylic Acid]
71 nM	C[C@@H]1[C@H]2C[C@@H](C[C@H]1Nc1cnn(-c3cccc(C(=O)NCC4(O)CCCCCC4)c3)c(=O)c1Br)C2(C)C [Synthetic Example 409, 3-[5-Bromo-6-oxo-4-{[(1R,2R,3R,5S)-2,6,6-trimethylbicyclo[3.1.1]hept-3-yl]amino}pyridazin-1(6H)-yl]-N-[(1-hydroxycycloheptyl)methyl]benzamide]
39 nM	C[C@@H]1[C@H]2C[C@@H](C[C@H]1Nc1cnn(CC(=O)NCc3ccncc3OCC#N)c(=O)c1Cl)C2(C)C [Synthetic Example 415]
120 nM	C[C@@H]1[C@H]2C[C@@H](C[C@H]1Nc1cnn(C3(C(=O)NCc4ccncc4)CCC3)c(=O)c1Br)C2(C)C [Synthetic Example 420, 1-[5-Bromo-6-oxo-4-{[(1R,2R,3R,5S)-2,6,6-trimethylbicyclo[3.1.1]hept-3-yl]amino}pyridazin-1(6H)-yl]-N-(pyridin-4-ylmethyl)cyclobutanecarboxamide]

More lines, now with the values behind:

SMILES	IC50
CC(C(=O)NCc1ccncc1)n1ncc(N[C@@H]2C[C@@H]3C[C@H]([C@H]2C)C3(C)C)c(Br)c1=O (stereo partly drawn) [Synthetic Example 46, 2-{5-Bromo-6-oxo-4-[(1R,2R,3R,5S)-2,6,6-trimethylbicyclo[3.1.1]hept-3-ylamino]pyridazin-1(6H)-yl}-N-(pyridin-4-ylmethyl)propanamide]	14 nM
CCOc1nn(CC(=O)c2ccc(N(CC)CC)cc2)c(=O)c(Cl)c1N[C@@H]1C[C@@H]2C[C@H]([C@H]1C)C2(C)C [Synthetic Example 140]	15 nM
CSc1c(N[C@@H]2C[C@@H]3C[C@H]([C@H]2C)C3(C)C)cnn(CC(=O)NCc2ccncc2)c1=O [Synthetic Example 146]	70 nM
Cc1c(N[C@@H]2C[C@@H]3C[C@H]([C@H]2C)C3(C)C)cnn(CC(=O)NCc2ccncc2)c1=O [Synthetic Example 154, 2-{5-Methyl-6-oxo-4-[(1R,2R,3R,5S)-2,6,6-trimethylbicyclo[3.1.1]hept-3-ylamino]pyridazin-1(6H)-yl}-N-(pyridin-4-ylmethyl)acetamide]	22 nM
C[C@@H]1[C@H]2C[C@@H](C[C@H]1Nc1cnn(CC(=S)NCc3ccncc3)c(=O)c1Br)C2(C)C [Synthetic Example 156, 2-{5-Bromo-6-oxo-4-[(1R,2R,3R,5S)-2,6,6-trimethylbicyclo[3.1.1]hept-3-ylamino]pyridazin-1(6H)-yl}-N-(pyridin-4-ylmethyl)ethanethioamide]	24 nM
C[C@@H]1[C@H]2C[C@@H](C[C@H]1Nc1cnn(CC(=O)NCc3cc[n+]([O-])cc3)c(=O)c1Br)C2(C)C [Synthetic Example 158, 4-[(2-{5-Bromo-6-oxo-4-[(1R,2R,3R,5S)-2,6,6-trimethylbicyclo[3.1.1]hept-3-ylamino]pyridazin-1(6H)-yl}acetamido)methyl]pyridine 1-oxide]	45 nM
CCN(CC)c1ccc(C(Cn2ncc(N[C@@H]3C[C@@H]4C[C@H]([C@H]3C)C4(C)C)c(Br)c2=O)=NOC)cc1 [Synthetic Example 159, 4-Bromo-2-{2-[4-(diethylamino)phenyl]-2-(methoxyimino)ethyl}-5-[(1R,2R,3R,5S)-2,6,6-trimethylbicyclo[3.1.1]hept-3-ylamino]pyridazin-3(2H)-one]	77 nM
C[C@@H]1[C@H]2C[C@@H](C[C@H]1Nc1cnn(-c3cccc(C(=O)NCc4ccncc4)c3)c(=O)c1Br)C2(C)C [Synthetic Example 162, 3-{5-Bromo-6-oxo-4-[(1R,2R,3R,5S)-2,6,6-trimethylbicyclo[3.1.1]hept-3-ylamino]pyridazin-1(6H)-yl}-N-(pyridin-4-ylmethyl)benzamide]	51 nM
C[C@@H]1[C@H]2C[C@@H](C[C@H]1Nc1cnn(CC(=O)NCc3ccncc3)c(=O)c1-c1ccncc1)C2(C)C [Synthetic Example 379, 2-[6-Oxo-5-(pyridin-4-yl)-4-{[(1R,2R,3R,5S)-2,6,6-trimethylbicyclo[3.1.1]hept-3-yl]amino}pyridazin-1(6H)-yl]-N-(pyridin-4-ylmethyl)acetamide]	240 nM
CCC(NC(=O)Cn1ncc(NC2C[C@@H]3CC([C@H]2C)C3(C)C)c(OC(F)F)c1=O)c1ccncc1 (stereo partly shown) [Synthetic Example 382]	25 nM
CCC(NC(=O)Cn1ncc(NC2C[C@@H]3CC([C@H]2C)C3(C)C)c(OC)c1=O)c1ccncc1 (stereo partly shown) [Synthetic Example 385]	39 nM
C[C@@H]1[C@H]2C[C@@H](C[C@H]1Nc1cnn(CC(=O)NCc3ccncc3)c(=O)c1C#N)C2(C)C [Synthetic Example 387, 2-[5-Cyano-6-oxo-4-{[(1R,2R,3R,5S)-2,6,6-trimethylbicyclo[3.1.1]hept-3-yl]amino}pyridazin-1(6H)-yl]-N-(pyridin-4-ylmethyl)acetamide]	37 nM
C[C@@H]1[C@H]2C[C@@H](C[C@H]1Nc1c(O)nn(CC(=O)NCc3ccncc3)c(=O)c1Cl)C2(C)C [Synthetic Example 390, 2-[5-Chloro-3-hydroxy-6-oxo-4-{[(1R,2R,3R,5S)-2,6,6-trimethylbicyclo[3.1.1]hept-3-yl]amino}pyridazin-1(6H)-yl]-N-(pyridin-4-ylmethyl)acetamide Hydrochloride]	270 nM
C[C@@H]1[C@H]2C[C@@H](C[C@H]1Nc1cnn(Cc3ccncc3)c(=O)c1Br)C2(C)C [Synthetic Example 394, 4-Bromo-2-(pyridin-4-ylmethyl)-5-{[(1R,2R,3R,5S)-2,6,6-trimethylbicyclo[3.1.1]hept-3-yl]amino}pyridazin-3(2H)-one]	220 nM
CCC(NC(=O)Cn1ncc(N[C@@H]2C[C@@H]3C[C@H]([C@H]2C)C3(C)C)c(Cl)c1=O)C(N)=O (stereo partly drawn) [Synthetic Example 402, 2-({[5-Chloro-6-oxo-4-{[(1R,2R,3R,5S)-2,6,6-trimethylbicyclo[3.1.1]hept-3-yl]amino}pyridazin-1(6H)-yl]acetyl}amino)butanamide]	120 nM
